Assay results: US11213590B2, “SSTR-targeted conjugates and particles and formulations thereof” (priority 2016, dated 2022)
Values joined by “and” are separate entries in the source; they are usually repeats but may differ in a detail not shown here. Identical values can stand only once. Like-named read-outs stand apart in the source and are kept apart here.

What was measured:
NCI-H69 = assay: cells; assay type: cell-based, human; conditions: for IC50: 5,000 cells/well
Protocol: (§1) The purpose of this study was to determine the receptor-dependent inhibition of proliferation in vitro by the somatostatin targeting conjugate Conjugate 57 and determine the sensitivity to DM1 in the human SSTR2 expressing cancer cell lines: NCI-H69, NCI-H82, NCI-H727 and HCC-33. Cells were incubated with Conjugate 57 for 6 hours, in the presence or absence of an excess of octreotide, a somatostatin analogue. A three-fold serial dilution of Conjugate 57 was used for a total of ten concentration points. After treatment, cells were washed, incubated for an additional period of time, either 72 or 96 hours and proliferation was measured using the CellTiter-Glo® Luminescent Cell Viability Assay. The IC50 of Conjugate 57 was used to determine the inhibiting activity in proliferation assays. To determine DM1 sensitivity a similar method to the Conjugate 57 assay was employed with the additional incubation time points of 30 minutes, 1, 2, and 4 hours and the exclusion of the pre-treatment with octreotide. DM1 effect from the most to least sensitive cell line was determined to be: NCI-H69>HCC-33>NCI-H82>NCI-H727 (Table 5B). […] The addition of excess octreotide (100 μM) competes with Conjugate 57 for binding to the SSTR2 receptor. […] In the NCI-H69 experiments, pre-incubation with an excess of octreotide modestly diminished the activity of Conjugate 57 by 1.6 and 2.4 fold, depending on the assay conditions. In the HCC-33 cell line, activity of Conjugate 57 was 3.2 (±1.4) times higher when dosed alone, compared to when the cells were pre-incubated with octreotide. The small but measureable changes in Conjugate 57 activity in the presence of excess octreotide seen in the NCI-H69 and HCC-33 cell lines supports the receptor dependence of the Conjugate 57 antiproliferative effect seen in vitro. In summary, although all the cell lines tested in these experiments express the SSTR2 protein, they have different levels of sensitivity to the Conjugate 57 conjugate of which the DM1 sensitivity may be a contributing factor.

NCI-H727 = assay: cells; assay type: cell-based, human; conditions: for IC50: assay duration 72 h
Protocol: as §1

NCI-H82 = assay: cells; assay type: cell-based, human; conditions: for IC50: assay duration 72 h
Protocol: as §1

HCC-33 = assay: Inhibition of proliferation, CellTiter-Glo, HCC-33; assay type: cell-based, human
Protocol: as §1

[1] = Conversion of impurities back into Conjugate 57 in acetate buffer; assay type: physicochemical
Protocol: Two impurities present in Conjugate 57 with RRT at 1.69 and 1.70, referred to herein as Impurity A and B respectively, were identified as Conjugate 57 adducts. […] The rate of conversion of these two compounds back into Conjugate 57 is dependent on temperature. Data are provided in Table 11A and Table 11B showing this conversion at room temperature and 40° C.

SSTR1 = SSTR1 (Homo sapiens, UniProt P30872); assay: Affinity profile (half-maximal inhibitory concentration), SSTR1; assay type: binding
Source text: (§2) DOTATE, also known as DOTA-TATE or DOTA-octreotate, comprises an amide of the acid DOTA, which connects a radionuclide and (Tyr3)-octreotate, a derivative of octreotide. DOTATOC, also known as edotreotide, SMT487, or (DOTA^0-Phe^1-Tyr^3)octreotide, is also an octreotide derivative which can be bound to radionuclides for diagnosis and treatment.

SSTR2 = SSTR2 (Homo sapiens, UniProt P30874); assay: Affinity profile (half-maximal inhibitory concentration), SSTR2; assay type: binding
Source text: as §2

SSTR4 = SSTR4 (Homo sapiens, UniProt P31391); assay: Affinity profile (half-maximal inhibitory concentration), SSTR4; assay type: binding
Source text: as §2

[2] = Buffer screening for solution stability; assay type: physicochemical; conditions: acetate buffer versus citrate and phosphate buffers; pH range of 4.0 to 4.8
Source text: Conjugate 57 is a free flowing powder. The formulation development of Conjugate 57 was accomplished by screening conditions that would provide stability and tonicity to the drug product solution. […] The buffer is formed by a combination of sodium acetate and acetic acid. In summary, acetate buffer, a commonly used parenteral buffer, is used to dissolve Conjugate 57 and ensure stability at a pH range of 4.0 to 4.8.

[3] = 5,000 cells/well, excess octreotide (100 μM), read-out: Inhibition of Proliferation IC50 With Octreotide
[4] = 5,000 cells/well, read-out: Inhibition of Proliferation IC50 Without Octreotide
[5] = 10,000 cells/well, excess octreotide (100 μM), read-out: Inhibition of Proliferation IC50 With Octreotide
[6] = 10,000 cells/well, read-out: Inhibition of Proliferation IC50 Without Octreotide

SSTR4, sequence (P31391 whole entry): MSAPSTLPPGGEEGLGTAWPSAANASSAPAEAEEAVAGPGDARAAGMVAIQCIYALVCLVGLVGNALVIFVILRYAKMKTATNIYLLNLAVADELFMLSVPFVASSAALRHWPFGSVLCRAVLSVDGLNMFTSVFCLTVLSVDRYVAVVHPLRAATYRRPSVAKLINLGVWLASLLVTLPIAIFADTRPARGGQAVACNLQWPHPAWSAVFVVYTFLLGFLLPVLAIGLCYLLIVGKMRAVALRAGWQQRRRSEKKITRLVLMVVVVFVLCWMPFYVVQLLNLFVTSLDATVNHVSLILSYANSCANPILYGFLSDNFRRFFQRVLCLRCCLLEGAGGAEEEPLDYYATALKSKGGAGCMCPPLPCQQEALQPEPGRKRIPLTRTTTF
SSTR1, sequence (P30872 whole entry): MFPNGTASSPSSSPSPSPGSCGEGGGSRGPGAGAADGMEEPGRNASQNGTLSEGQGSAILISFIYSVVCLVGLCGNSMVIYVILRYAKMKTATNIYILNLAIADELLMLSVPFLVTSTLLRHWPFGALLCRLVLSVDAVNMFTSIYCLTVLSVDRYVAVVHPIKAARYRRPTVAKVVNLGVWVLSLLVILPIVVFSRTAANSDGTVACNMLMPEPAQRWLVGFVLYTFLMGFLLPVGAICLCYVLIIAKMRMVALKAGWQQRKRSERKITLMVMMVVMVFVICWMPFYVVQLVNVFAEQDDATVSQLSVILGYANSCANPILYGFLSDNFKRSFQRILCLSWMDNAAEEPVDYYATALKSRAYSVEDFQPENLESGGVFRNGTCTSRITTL
SSTR2, sequence (P30874 whole entry): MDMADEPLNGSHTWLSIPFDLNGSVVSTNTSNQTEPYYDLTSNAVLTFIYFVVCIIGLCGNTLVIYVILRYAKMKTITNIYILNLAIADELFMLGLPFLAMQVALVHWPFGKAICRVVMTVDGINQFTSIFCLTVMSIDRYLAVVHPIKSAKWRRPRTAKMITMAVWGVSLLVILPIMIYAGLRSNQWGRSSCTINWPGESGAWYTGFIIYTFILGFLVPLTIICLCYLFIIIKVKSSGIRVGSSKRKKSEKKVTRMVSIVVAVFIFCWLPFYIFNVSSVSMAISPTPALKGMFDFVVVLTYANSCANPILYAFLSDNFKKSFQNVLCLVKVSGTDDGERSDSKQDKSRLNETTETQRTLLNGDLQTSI

SMILES: COc1cc2cc(c1Cl)N(C)C(=O)C[C@H](OC(=O)[C@H](C)N(C)C(=O)CCSSC[C@H](NC(=O)[C@@H]1CSSC[C@H](NC(=O)[C@H](N)Cc3ccccc3)C(=O)N[C@@H](Cc3ccc(O)cc3)C(=O)N[C@H](Cc3c[nH]c4ccccc34)C(=O)N[C@@H](CCCCN)C(=O)N[C@@H]([C@@H](C)O)C(=O)N1)C(N)=O)[C@]1(C)O[C@H]1[C@H](C)[C@@H]1C[C@@](O)(NC(=O)O1)[C@H](OC)/C=C/C=C(\C)C2 [Conjugate 57]
- IC50 (NCI-H69; assay duration 72 h, 6 h treatment, read-out: Inhibition of Proliferation IC50 Without Octreotide): 108 nM
- IC50 (NCI-H69; assay duration 72 h, excess octreotide (100 μM), read-out: Inhibition of Proliferation IC50 With Octreotide): 258 nM
- IC50 (NCI-H69; assay duration 96 h, 6 h treatment, read-out: Inhibition of Proliferation IC50 Without Octreotide): 167 nM
- IC50 (NCI-H69; assay duration 96 h, excess octreotide (100 μM), read-out: Inhibition of Proliferation IC50 With Octreotide): 271 nM
- decrease of activity by pre-incubation with excess octreotide (NCI-H69; depending on the assay conditions): 1.6 fold and 2.4 fold
- IC50 (NCI-H727; [3]): 810 nM
- IC50 (NCI-H727; [4]): 3240 nM
- IC50 (NCI-H727; [5]): 1900 nM
- IC50 (NCI-H727; [6]): 2690 nM
- activity in the presence of excess octreotide (NCI-H727; octreotide 100 μM): not decreased
- IC50 (NCI-H82; [3]): 128 nM
- IC50 (NCI-H82; [4]): 106 nM
- IC50 (NCI-H82; [5]): 1290 nM
- IC50 (NCI-H82; [6]): 1050 nM
- activity in the presence of excess octreotide (NCI-H82; octreotide 100 μM): not decreased
- activity dosed alone compared to pre-incubation with octreotide (HCC-33): 3.2 (±1.4) times higher
- IC50 (HCC-33; 5,000 cells/well, assay duration 72 h (repeat experiments), read-out: Inhibition of Proliferation IC50 Without Octreotide): 230 nM
- Total (sum of Conjugate 57 and impurities A and B) ([1]; 40° C., 0 hr): 98.6%
- content during conversion of impurities ([1]; 40° C., 0 hr): 94.6%
- Total (sum of Conjugate 57 and impurities A and B) ([1]; 40° C., 1.4 hr): 98.7%
- content during conversion of impurities ([1]; 40° C., 1.4 hr): 97.9%
- Total (sum of Conjugate 57 and impurities A and B) ([1]; 40° C., 8.4 hr): 98.8%
- content during conversion of impurities ([1]; 40° C., 8.4 hr): 98.5%
- Total (sum of Conjugate 57 and impurities A and B) ([1]; room temperature, 0 hr): 98.6%
- content during conversion of impurities ([1]; room temperature, 0 hr): 94.6%
- Total (sum of Conjugate 57 and impurities A and B) ([1]; room temperature, 9.0 hr): 98.7%
- content during conversion of impurities ([1]; room temperature, 9.0 hr): 97.8%
- Total (sum of Conjugate 57 and impurities A and B) ([1]; room temperature, 11.6 hr): 98.8%
- content during conversion of impurities ([1]; room temperature, 11.6 hr): 98.1%
- Total (sum of Conjugate 57 and impurities A and B) ([1]; room temperature, 14.8 hr): 98.8%
- content during conversion of impurities ([1]; room temperature, 14.8 hr): 98.3%
- Total (sum of Conjugate 57 and impurities A and B) ([1]; room temperature, 16.7 hr): 98.8%
- content during conversion of impurities ([1]; room temperature, 16.7 hr): 98.3%
- IC50 (SSTR1): 380 nM
- IC50 (SSTR2): 0.042 nM
- IC50 (SSTR4): > 1000 nM
- solution stability by buffer [2]: most stability
